Tests used:
[1] = tested on: B16-F10 cells; test: MTS cell proliferation assay; format: cell-based, mouse; details: FIG. 1, in vitro
Method: MTS: Same numbers of PRAK WT and KO cells were plated on 96-well plates. Cell Titer 96 Aqueous cell proliferation detection solution was added at different time points after the cells adhered to the walls. After incubation at 37° C. for 1 to 4 hours, the absorbance was measured at 490 nm and the cell proliferation curve was drawn.

[2] = tested on: B16-F10 cells; test: AnnexinV/7-AAD staining, apoptosis by flow cytometry; format: cell-based, mouse; details: FIG. 2; 0.1 μM and 1 μM, 24 hours
Method: AnnexinV/7-AAD staining: Cells were plated on 24-well plates. 0.1 μM and 1 μM of PRAK inhibitor-23 were added for treatment after the cells adhered to the walls. After 24 hours, the cells were harvested for Annexin V/7-AAD staining, and the cell apoptosis was analyzed by flow cytometry.

[3] = tested on: B16-F10 tumors; test: Growth of subcutaneously inoculated B16-F10 tumors in C57BL/6 mice; format: in vivo, mouse; details: FIG. 5, 2 mg/kg/d intraperitoneal
Method: 3. Effects on tumor growth in situ Experimental procedure: The C57BL/6 female mice of 6 to 8 week old (commercially available, for example, from Charles River) were selected for the experiment. The B16-F10 cells in the logarithmic growth phase were digested, and washed twice with PBS. After counting, the cells were resuspended in PBS at a density of 1.5×10^6/ml. The tumor cells (3×10^5 cells in 200 μL) were subcutaneously inoculated into the lateral ribs of mice. The drug-treated group was intraperitoneally injected with PRAK inhibitor-23 at 2 mg/kg/d.
The long diameter (L) and short diameter (S) of the tumor were measured with vernier calipers every two days, the tumor size was calculated with the formula L×S×S×0.5, and the tumor growth curve was drawn.

[4] = tested on: spontaneous breast tumors; test: Incidence and growth of spontaneous breast tumors in MMTV-PyMT mice; format: in vivo, mouse; details: FIG. 12, 1 mg/kg every other day from 12th week, week 15
Method: The MMTV-PyMT mice were crossed with PRAK mice to obtain MMTV-PRAK WT and MMTV-PRAK knockout mice. From 8 to 10 weeks, the occurrence of breast tumors was observed. Another group of MMTV-PRAK WT mice were given PRAK inhibitor (1 mg/kg) every other day from the 12th week. At week 15, the mice were sacrificed, breast tumor nodules were counted and weighed, and lung tumor nodules were counted at the same time.

O=C1NCc2cc(-c3cnc(Nc4ccc(N5CCOCC5)cc4)c4nccn34)ccc21 [PRAK inhibitor-23, 5-(8-((4-morpholinylphenyl)amino)imidazo [1,2-a]pyrazin-5-yl) isoindol-1-one]
no significant effect: effect on the proliferation of B16-F10 cells [1] | effect on the apoptosis of B16-F10 cells [2] | effect on the growth of subcutaneously inoculated B16-F10 tumors at the injection site [3] | effect on the incidence and growth of spontaneous breast tumors [4]

Source: patent US20210132041A1, “TARGET FOR DRUG TREATMENT OF TUMOR METASTASIS AND USE THEREOF” (PEKING UNIVERSITY, priority 2018, published 2021)
